The test deals with BDF1 mice, P388 leukemia ip, median survival T/C. The test is described as follows: NCI In Vivo Anticancer Drug Screen. Data for tumor model P388 Leukemia (intraperitoneal) in B6D2F1 (BDF1) mice. The note with it: endpoint: median survival time, higher = longer survival. The gist of the method:
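Reported as T/C, where T is the survival measurement in dosed animals and C the same measurement in vehicle controls.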

[1] abbreviates: dose: 100.0 mg/kg/injection, schedule: Q01DX001 (ip), vehicle: Klucel (hydroxypropylcellulose) (HPC).
The mark [2] stands for this setting: dose: 100.0 mg/kg/injection, schedule: Q04DX003 (ip), vehicle: Klucel (hydroxypropylcellulose) (HPC).
Setting [3] is: dose: 200.0 mg/kg/injection, schedule: Q01DX001 (ip), vehicle: Klucel (hydroxypropylcellulose) (HPC).
Setting [4] is: dose: 200.0 mg/kg/injection, schedule: Q04DX003 (ip), vehicle: Klucel (hydroxypropylcellulose) (HPC).
[5] abbreviates: dose: 400.0 mg/kg/injection, schedule: Q01DX001 (ip), vehicle: Klucel (hydroxypropylcellulose) (HPC).
[6] abbreviates: dose: 400.0 mg/kg/injection, schedule: Q04DX003 (ip), vehicle: Klucel (hydroxypropylcellulose) (HPC).
The mark [7] stands for this setting: dose: 100.0 mg/kg/injection, schedule: Q04DX003 (ip), vehicle: saline with Tween-80.
The mark [8] stands for this setting: dose: 200.0 mg/kg/injection, schedule: Q04DX003 (ip), vehicle: saline with Tween-80.
The mark [9] stands for this setting: dose: 400.0 mg/kg/injection, schedule: Q04DX003 (ip), vehicle: saline with Tween-80.
Where [10] appears, read: dose: 12.5 mg/kg/injection, schedule: Q01DX009 (ip), vehicle: Klucel (hydroxypropylcellulose) (HPC).
Setting [11] is: dose: 25.0 mg/kg/injection, schedule: Q01DX009 (ip), vehicle: Klucel (hydroxypropylcellulose) (HPC).
Where [12] appears, read: dose: 100.0 mg/kg/injection, schedule: Q01DX009 (ip), vehicle: saline with Tween-80.
The mark [13] stands for this setting: dose: 200.0 mg/kg/injection, schedule: Q01DX009 (ip), vehicle: saline with Tween-80.
The mark [14] stands for this setting: dose: 50.0 mg/kg/injection, schedule: Q01DX009 (ip), vehicle: Klucel (hydroxypropylcellulose) (HPC).

Where “and” joins values, the source holds several entries; their conditions need not be identical. Equal entries are not always repeated. Toxic doses and inconclusive results are not listed.

In the case of `CC(=O)OC1CCC2(C)C(=CCC3C2CCC2(C)C(OC(=O)c4ccccc4)CCC32)C1` (centres undefined), the T/C under setting [1] is 100 % of control; the T/C (dose: 100.0 mg/kg/injection, schedule: Q01DX009 (ip), vehicle: saline) is 110 % of control; the T/C under setting [2] is 120 % of control; the T/C under setting [3] was 100 % of control; the T/C (dose: 200.0 mg/kg/injection, schedule: Q01DX009 (ip), vehicle: saline) is 95 % of control; the T/C under setting [4] was 105 % of control. For the same compound, the T/C reads like this: under setting [5], 100 % of control; (dose: 400.0 mg/kg/injection, schedule: Q01DX009 (ip), vehicle: saline) 105 % of control; under setting [6], 110 % of control.

Turning to `OC(CC(O)(C(F)(F)F)C(F)(F)F)c1ccccc1` (centres undefined), the T/C under setting [7] is 100 % of control, the T/C under setting [8] was 118 % of control and the T/C under setting [9] is 113 % of control.

For `Cc1ncc([N+](=O)[O-])n1CCO`, the T/C is, setting by setting: (dose: 50.0 mg/kg/injection, schedule: Q04DX003 (ip), vehicle: Klucel (hydroxypropylcellulose) (HPC)) 100 % of control; under setting [2], 100 % of control; under setting [4], 95 % of control; under setting [6], 91 % of control.

Consider `O=[N+]([O-])C1(Cl)CCCCC1`, for which the T/C was 112 % of control (dose: 6.25 mg/kg/injection, schedule: Q01DX009 (ip), vehicle: Klucel (hydroxypropylcellulose) (HPC)); 108 % of control under setting [10]; 102 % of control and 105 % of control under setting [11].

For the compound `O=[N+]([O-])c1cccc(N/N=C\c2c(Cl)n(-c3ccccc3)c3ccccc23)c1`, the T/C is 97 % of control (dose: 100.0 mg/kg/injection, schedule: Q04DX002 (ip), vehicle: Klucel (hydroxypropylcellulose) (HPC)); 93 % of control (dose: 200.0 mg/kg/injection, schedule: Q04DX002 (ip), vehicle: Klucel (hydroxypropylcellulose) (HPC)); 99 % of control (dose: 400.0 mg/kg/injection, schedule: Q04DX002 (ip), vehicle: Klucel (hydroxypropylcellulose) (HPC)).

With `BrC1C(Br)C(Br)C2OC2C1Br` (centres undefined), the T/C runs as follows: under setting [2], 100 % of control; under setting [4], 105 % of control; under setting [6], 100 % of control.

With `CCCCCCCC(O)CCC` (centres undefined), the T/C is 108 % of control under setting [2], 100 % of control under setting [4] and 87 % of control under setting [6].

For `NCCNc1ccc(NCCN)c2c1C(=O)c1ccccc1C2=O`, the T/C (dose: 6.25 mg/kg/injection, schedule: Q01DX009 (ip), vehicle: other) is 214 % of control.

`C(=C\c1ccccc1)/CSc1ncnc2nc[nH]c12`: the T/C was 104 % of control under setting [12]; 90 % of control under setting [7]; 104 % of control under setting [13]; 104 % of control under setting [8]; 100 % of control (dose: 400.0 mg/kg/injection, schedule: Q01DX009 (ip), vehicle: saline with Tween-80); 100 % of control under setting [9].

On to `Cc1cccc(NC(=O)C2CCC(C)(C(=O)O)C2(C)C)c1` (centres undefined), for which the T/C (dose: 50.0 mg/kg/injection, schedule: Q04DX003 (ip), vehicle: saline with Tween-80) is 100 % of control; the T/C under setting [7] is 95 % of control; the T/C under setting [8] is 104 % of control.

`COc1cc2ccc3c(c2cc1OC)CNCC3`: the T/C was 104 % of control (dose: 50.0 mg/kg/injection, schedule: Q04DX003 (ip), vehicle: saline); 109 % of control (dose: 100.0 mg/kg/injection, schedule: Q04DX003 (ip), vehicle: saline); 109 % of control (dose: 200.0 mg/kg/injection, schedule: Q04DX003 (ip), vehicle: saline).

As to `CCOC(=O)CCC(=O)CC(O)(C(F)(F)F)C(F)(F)Cl` (centres undefined), the T/C under setting [7] was 100 % of control, the T/C under setting [8] is 90 % of control and the T/C under setting [9] is 95 % of control.

Take `COC(C)c1cnccc1C(C)c1cc2ccccc2[nH]1` (centres undefined): the T/C by setting is: (dose: 100.0 mg/kg/injection, schedule: Q01DX001 (ip), vehicle: saline with Tween-80) 105 % of control; (dose: 200.0 mg/kg/injection, schedule: Q01DX001 (ip), vehicle: saline with Tween-80) 108 % of control.

`CCCCCCCCCCCC(O)CCCCC` (centres undefined): the T/C is 120 % of control (dose: 100.0 mg/kg/injection, schedule: Q01DX009 (ip), vehicle: other); 115 % of control (dose: 200.0 mg/kg/injection, schedule: Q01DX009 (ip), vehicle: other); 115 % of control (dose: 400.0 mg/kg/injection, schedule: Q01DX009 (ip), vehicle: other).

As to `CC1=C(O)C(=O)C(C2=C(O)C(=O)C(C)=C(O)C2=O)=C(O)C1=O`, the T/C (dose: 0.63 mg/kg/injection, schedule: Q01DX010 (ip), vehicle: saline) is 100 % of control; the T/C (dose: 1.25 mg/kg/injection, schedule: Q01DX010 (ip), vehicle: saline) was 100 % of control; the T/C (dose: 62.5 micrograms/kg/injection, schedule: Q01DX001 (ip), vehicle: saline) is 118 % of control; the T/C (dose: 125.0 micrograms/kg/injection, schedule: Q01DX001 (ip), vehicle: saline) was 90 % of control; the T/C (dose: 250.0 micrograms/kg/injection, schedule: Q01DX001 (ip), vehicle: saline) is 100 % of control; the T/C (dose: 500.0 micrograms/kg/injection, schedule: Q01DX001 (ip), vehicle: saline) was 100 % of control. For the same compound, the T/C (dose: 1000.0 micrograms/kg/injection, schedule: Q01DX001 (ip), vehicle: saline) is 100 % of control.

For the compound `COc1cc(CCC(NC(C)=O)c2cccc(O)c(=O)c2)cc(OC)c1OC` (centres undefined), the T/C is, setting by setting: (dose: 25.0 mg/kg/injection, schedule: Q01DX009 (ip), vehicle: saline with Tween-80) 90 % of control; (dose: 50.0 mg/kg/injection, schedule: Q01DX009 (ip), vehicle: saline with Tween-80) 96 % of control; under setting [12], 90 % of control; under setting [13], 91 % of control.

With `CC1=NNC(=O)C1`, the T/C was 100 % of control (dose: 100.0 mg/kg/injection, schedule: Q01DX001 (ip), vehicle: saline sonified); 100 % of control (dose: 200.0 mg/kg/injection, schedule: Q01DX001 (ip), vehicle: saline sonified); 105 % of control (dose: 400.0 mg/kg/injection, schedule: Q01DX001 (ip), vehicle: saline sonified).

Turning to `Cc1ccc(NC(=S)NNC(=S)NNc2ccccc2)cc1C`, the T/C runs as follows: (dose: 100.0 mg/kg/injection, schedule: Q01DX009 (ip), vehicle: Klucel (hydroxypropylcellulose) (HPC)) 115 % of control; (dose: 200.0 mg/kg/injection, schedule: Q01DX009 (ip), vehicle: Klucel (hydroxypropylcellulose) (HPC)) 120 % of control.

On to `Clc1nc2nnnn2c2ccccc12`, for which the T/C (dose: 20.0 mg/kg/injection, schedule: Q01DX009 (ip), vehicle: saline) is 94 % of control and the T/C (dose: 40.0 mg/kg/injection, schedule: Q01DX009 (ip), vehicle: saline) was 95 % of control.

`CCOC(=O)/C(C#N)=C\c1cc(=O)c(OC)co1`: the T/C was 90 % of control under setting [1], 100 % of control under setting [3] and 100 % of control under setting [5].

For `CN(C)CC1CCC/C(=C\C=C\c2ccccc2)C1=O` (centres undefined), the T/C was 104 % of control and 113 % of control (dose: 4.37 mg/kg/injection, schedule: Q01DX009 (ip), vehicle: Klucel (hydroxypropylcellulose) (HPC)); 109 % of control (dose: 8.75 mg/kg/injection, schedule: Q01DX009 (ip), vehicle: Klucel (hydroxypropylcellulose) (HPC)); 109 % of control and 118 % of control (dose: 17.5 mg/kg/injection, schedule: Q01DX009 (ip), vehicle: Klucel (hydroxypropylcellulose) (HPC)); 120 % of control (dose: 35.0 mg/kg/injection, schedule: Q01DX009 (ip), vehicle: Klucel (hydroxypropylcellulose) (HPC)); 120 % of control under setting [14]; 120 % of control (dose: 75.0 mg/kg/injection, schedule: Q01DX009 (ip), vehicle: Klucel (hydroxypropylcellulose) (HPC)).

As to `CCn1cnc2c(C(F)(F)F)nc(N)nc21`, the T/C was 100 % of control under setting [10], 110 % of control under setting [11] and 110 % of control under setting [14].
